Source: patent US10328030B2, “Compositions and methods of use for treatment of mammalian diseases” (priority 2004, dated 2019)

Assays:
NCI-H23 lung cells = experiment: In vitro human tumor screen, 3H-thymidine assay; format: cell-based; conditions: positive control, doxorubicin 1 μM
[1] = Metabolic clearance and tolerability of iron dextran, intravenous infusion; design: species or system cynomolgus monkeys (Macaca fascicularis); conditions: cynomolgus monkey, in vivo
Description: Experiments on metabolic clearance rates done on cynomolgus monkeys (species Macaca fascicularis) have shown the safe use of large dosages of elemental iron derived from iron dextran. […] The administered iron dextran remained in the monkey plasma for at least 120 hours, at milligram levels. […] (See, U.S. application Ser. No. 10/888,576 incorporated herein in its entirety.) The monkey model clears the iron dextran from the system much more very rapidly, as compared to humans, because of a higher metabolic rate. Therefore, a longer plasma residence time is anticipated in humans, as has been shown in research, such as, for example, Henderson & Hillman, (1969).
Experiments on metabolic clearance rates done on cynomolgus monkeys (species Macaca fascicularis) have shown the safe use of large dosages of elemental iron derived from iron dextran. […] The monkey model clears the iron dextran from the system much more very rapidly, as compared to humans, because of a higher metabolic rate. Therefore, a longer plasma residence time is anticipated in humans, as has been shown in research, such as, for example, Henderson & Hillman, (1969).

[2] = in vivo; cited from earlier work

Row | Compound | inhibitory effect (in words) (NCI-H23 lung cells) | side effects (in words) [1] | time remaining in plasma ([1]; iv) | clearance rate [2] [mg/h] | time to clearance [2] [days]
1 | COc1cccc2c1C(=O)c1c(O)c3c(c(O)c1C2=O)C[C@@](O)(C(=O)CO)C[C@@H]3O[C@H]1C[C@H](N)[C@H](O)[C@H](C)O1 [doxorubicin] | high inhibitory effect |  |  |  | 
2 | iron dextran [Base Compound] |  | few negative side effects, i.e. abdominal swelling | at least 120 hours | 10 to 20 | ≤ 3
